The OligoGym collection
HELM strings list units from the 5' end as sugar, base in round brackets, then linkage (d deoxyribose, r ribose, m 2'-O-methyl, p phosphodiester). Strings are as the collection lists them; they lack the last nucleoside at the 3' end of the tested compound. [moe] = 2'-O-(2-methoxyethyl) (MOE); [sp] = phosphorothioate linkage; [m5C] = 5-methylcytosine

Target: UBE3A-ATS
Assay: mouse, dose not given
Conditions: ASO

Row | Substance | 3 h FOB score [score 0-7]
1 | RNA1{[moe](G)[sp].[moe](T)p.[moe](G)p.[moe](T)p.[moe](T)p.d(T)[sp].d(A)[sp].d(T)[sp].d([m5C])[sp].d([m5C])[sp].d(A)[sp].d(A)[sp].d(A)[sp].d([m5C])[sp].d([m5C])[sp].[moe](A)p.[moe](A)p.[moe](G)[sp].[moe](G)}$$$$ (last 3' nucleoside missing) | 3
2 | RNA1{[moe](G)[sp].[moe](T)p.[moe](G)p.[moe](T)p.[moe](T)p.d(T)[sp].d(T)[sp].d(T)[sp].d([m5C])[sp].d([m5C])[sp].d(A)[sp].d(T)[sp].d(T)[sp].d(T)[sp].d(T)[sp].[moe](T)p.[moe]([m5C])p.[moe](T)[sp].[moe]([m5C])}$$$$ (last 3' nucleoside missing) | 0
3 | RNA1{[moe](G)[sp].[moe](T)p.[moe](G)p.[moe](T)p.[moe]([m5C])p.d(A)[sp].d(T)[sp].d(A)[sp].d(T)[sp].d(G)[sp].d(T)[sp].d(A)[sp].d(G)[sp].d([m5C])[sp].d(A)[sp].[moe](A)p.[moe](T)p.[moe](T)[sp].[moe](A)}$$$$ (last 3' nucleoside missing) | 6.5
4 | RNA1{[moe](G)[sp].[moe](T)p.[moe](G)p.[moe](T)p.d(G)[sp].d(T)[sp].d(T)[sp].d(T)[sp].d(T)[sp].d(T)[sp].d([m5C])[sp].d([m5C])[sp].d(A)[sp].d(T)[sp].[moe](T)p.[moe](T)p.[moe](T)p.[moe](T)[sp].[moe]([m5C])}$$$$ (last 3' nucleoside missing) | 0
5 | RNA1{[moe](G)[sp].[moe](T)p.[moe](G)p.[moe](T)p.d(T)[sp].d(T)[sp].d(T)[sp].d(T)[sp].d([m5C])[sp].d([m5C])[sp].d(A)[sp].d(T)[sp].d(T)[sp].d(T)[sp].[moe](T)p.[moe](T)p.[moe]([m5C])p.[moe](T)[sp].[moe]([m5C])}$$$$ (last 3' nucleoside missing) | 0
6 | RNA1{[moe](G)[sp].[moe](T)p.[moe](G)p.[moe]([m5C])[sp].d(A)[sp].d(T)[sp].d(A)[sp].d([m5C])[sp].d([m5C])[sp].d([m5C])[sp].d(A)[sp].d(G)[sp].[moe](G)p.[moe](G)p.[moe](T)p.[moe](A)[sp].[moe](G)}$$$$ (last 3' nucleoside missing) | 1
7 | RNA1{[moe](G)[sp].[moe](T)p.[moe](G)p.[moe]([m5C])p.[moe](A)[sp].d(T)[sp].d(A)[sp].d([m5C])[sp].d([m5C])[sp].d([m5C])[sp].d(A)[sp].d(G)[sp].d(G)[sp].[moe](G)p.[moe](T)p.[moe](A)[sp].[moe](G)}$$$$ (last 3' nucleoside missing) | 5.5
8 | RNA1{[moe](G)[sp].[moe](T)p.[moe](G)p.[moe]([m5C])p.[moe](A)p.[moe](T)[sp].d(A)[sp].d([m5C])[sp].d([m5C])[sp].d([m5C])[sp].d(A)[sp].d(G)[sp].d(G)[sp].d(G)[sp].[moe](T)p.[moe](A)[sp].[moe](G)}$$$$ (last 3' nucleoside missing) | 4
9 | RNA1{[moe](G)[sp].[moe](T)p.[moe](G)p.[moe]([m5C])p.[moe](A)p.[moe](T)p.d(A)[sp].d([m5C])[sp].d([m5C])[sp].d([m5C])[sp].d(A)[sp].d(G)[sp].d(G)[sp].d(G)[sp].d(T)[sp].d(A)[sp].[moe](G)p.[moe](G)[sp].[moe](A)}$$$$ (last 3' nucleoside missing) | 1
10 | RNA1{[moe](G)[sp].[moe](T)p.[moe](G)p.[moe]([m5C])p.[moe](A)p.d(T)[sp].d(A)[sp].d([m5C])[sp].d([m5C])[sp].d([m5C])[sp].d(A)[sp].d(G)[sp].d(G)[sp].d(G)[sp].d(T)[sp].[moe](A)p.[moe](G)p.[moe](G)[sp].[moe](A)}$$$$ (last 3' nucleoside missing) | 1.2
11 | RNA1{[moe](G)[sp].[moe](T)p.[moe](G)p.[moe]([m5C])p.[moe]([m5C])p.d(T)[sp].d(T)[sp].d(T)[sp].d([m5C])[sp].d(T)[sp].d(A)[sp].d(T)[sp].d(T)[sp].d(T)[sp].d([m5C])[sp].[moe](A)p.[moe](G)p.[moe](A)[sp].[moe]([m5C])}$$$$ (last 3' nucleoside missing) | 0
12 | RNA1{[moe](G)[sp].[moe](T)p.[moe](G)p.[moe]([m5C])p.d(A)[sp].d(T)[sp].d(A)[sp].d([m5C])[sp].d([m5C])[sp].d([m5C])[sp].d(A)[sp].d(G)[sp].d(G)[sp].d(G)[sp].[moe](T)p.[moe](A)p.[moe](G)p.[moe](G)[sp].[moe](A)}$$$$ (last 3' nucleoside missing) | 2
13 | RNA1{[moe](G)[sp].[moe](T)p.[moe](T)p.[moe](A)p.[moe](G)p.d(G)[sp].d(T)[sp].d(T)[sp].d(A)[sp].d(G)[sp].d(T)[sp].d(G)[sp].d([m5C])[sp].d(A)[sp].d([m5C])[sp].[moe](A)p.[moe](G)p.[moe](A)[sp].[moe](T)}$$$$ (last 3' nucleoside missing) | 6
14 | RNA1{[moe](G)[sp].[moe](T)p.[moe](T)p.[moe](T)p.[moe](A)p.d(G)[sp].d(G)[sp].d(T)[sp].d([m5C])[sp].d(A)[sp].d(A)[sp].d([m5C])[sp].d([m5C])[sp].d(A)[sp].d(A)[sp].[moe](T)p.[moe](T)p.[moe](T)[sp].[moe](G)}$$$$ (last 3' nucleoside missing) | 1
15 | RNA1{[moe](G)[sp].[moe](T)p.[moe](T)p.[moe](T)p.[moe](A)p.d(T)[sp].d(A)[sp].d(G)[sp].d(G)[sp].d(G)[sp].d(T)[sp].d(G)[sp].d(G)[sp].d(T)[sp].d(T)[sp].[moe](G)p.[moe](G)p.[moe](T)[sp].[moe](T)}$$$$ (last 3' nucleoside missing) | 7
16 | RNA1{[moe](G)[sp].[moe](T)p.[moe](T)p.[moe](T)p.[moe](T)p.[moe](T)p.d([m5C])[sp].d([m5C])[sp].d(A)[sp].d(T)[sp].d(T)[sp].d(T)[sp].d(T)[sp].d(T)[sp].d([m5C])[sp].d(T)[sp].[moe]([m5C])p.[moe](T)[sp].[moe](T)}$$$$ (last 3' nucleoside missing) | 0
17 | RNA1{[moe](G)[sp].[moe](T)p.[moe](T)p.[moe](T)p.[moe](T)p.d(T)[sp].d([m5C])[sp].d([m5C])[sp].d(A)[sp].d(T)[sp].d(T)[sp].d(T)[sp].d(T)[sp].d(T)[sp].d([m5C])[sp].[moe](T)p.[moe]([m5C])p.[moe](T)[sp].[moe](T)}$$$$ (last 3' nucleoside missing) | 0
18 | RNA1{[moe](G)[sp].[moe](T)p.[moe](T)p.[moe](T)p.[moe](T)p.d([m5C])[sp].d(G)[sp].d([m5C])[sp].d([m5C])[sp].d([m5C])[sp].d(G)[sp].d(T)[sp].d(T)[sp].d(A)[sp].d([m5C])[sp].[moe]([m5C])p.[moe](T)p.[moe]([m5C])[sp].[moe](A)}$$$$ (last 3' nucleoside missing) | 5.3
19 | RNA1{[moe](G)[sp].[moe](T)p.[moe](T)p.[moe](T)p.d(T)[sp].d(T)[sp].d([m5C])[sp].d([m5C])[sp].d(A)[sp].d(T)[sp].d(T)[sp].d(T)[sp].d(T)[sp].d(T)[sp].[moe]([m5C])p.[moe](T)p.[moe]([m5C])p.[moe](T)[sp].[moe](T)}$$$$ (last 3' nucleoside missing) | 0
20 | RNA1{[moe](G)[sp].[moe](T)p.[moe](T)p.[moe]([m5C])p.[moe](T)p.d(G)[sp].d(G)[sp].d(A)[sp].d(A)[sp].d(T)[sp].d([m5C])[sp].d(T)[sp].d(T)[sp].d(G)[sp].d(T)[sp].[moe](A)p.[moe](G)p.[moe](A)[sp].[moe](G)}$$$$ (last 3' nucleoside missing) | 4
21 | RNA1{[moe](G)[sp].[moe](T)p.[moe]([m5C])p.[moe](A)[sp].d(T)[sp].d([m5C])[sp].d(T)[sp].d([m5C])[sp].d(G)[sp].d(G)[sp].d(G)[sp].d(T)[sp].[moe](A)p.[moe](T)p.[moe](A)p.[moe](T)[sp].[moe](A)}$$$$ (last 3' nucleoside missing) | 4.3
22 | RNA1{[moe](G)[sp].[moe](T)p.[moe]([m5C])p.[moe](A)p.[moe](A)p.d([m5C])[sp].d([m5C])[sp].d(A)[sp].d(A)[sp].d(T)[sp].d(T)[sp].d(T)[sp].d(G)[sp].d([m5C])[sp].d(T)[sp].[moe](A)p.[moe](T)p.[moe](T)[sp].[moe]([m5C])}$$$$ (last 3' nucleoside missing) | 1
23 | RNA1{[moe](G)[sp].[moe](T)p.[moe]([m5C])p.[moe](A)p.[moe](G)p.d(A)[sp].d(T)[sp].d(T)[sp].d([m5C])[sp].d([m5C])[sp].d(T)[sp].d(A)[sp].d(A)[sp].d(A)[sp].d(T)[sp].[moe](A)p.[moe]([m5C])p.[moe](G)[sp].[moe]([m5C])}$$$$ (last 3' nucleoside missing) | 0
24 | RNA1{[moe](G)[sp].[moe](T)p.[moe]([m5C])p.[moe](A)p.[moe](G)p.d(A)[sp].d([m5C])[sp].d(T)[sp].d(T)[sp].d(A)[sp].d(T)[sp].d(T)[sp].d(G)[sp].d(A)[sp].d(G)[sp].[moe](G)p.[moe](A)p.[moe](T)[sp].[moe](G)}$$$$ (last 3' nucleoside missing) | 4
25 | RNA1{[moe](G)[sp].[moe](T)p.[moe]([m5C])p.[moe](A)p.[moe](T)[sp].d([m5C])[sp].d(T)[sp].d([m5C])[sp].d(G)[sp].d(G)[sp].d(G)[sp].d(T)[sp].d(A)[sp].[moe](T)p.[moe](A)p.[moe](T)[sp].[moe](A)}$$$$ (last 3' nucleoside missing) | 4.3
26 | RNA1{[moe](G)[sp].[moe](T)p.[moe]([m5C])p.[moe](A)p.[moe](T)p.[moe]([m5C])[sp].d(T)[sp].d([m5C])[sp].d(G)[sp].d(G)[sp].d(G)[sp].d(T)[sp].d(A)[sp].d(T)[sp].[moe](A)p.[moe](T)[sp].[moe](A)}$$$$ (last 3' nucleoside missing) | 4.7
27 | RNA1{[moe](G)[sp].[moe](T)p.[moe]([m5C])p.[moe](A)p.[moe](T)p.[moe]([m5C])p.d(T)[sp].d([m5C])[sp].d(G)[sp].d(G)[sp].d(G)[sp].d(T)[sp].d(A)[sp].d(T)[sp].d(A)[sp].d(T)[sp].[moe](A)p.[moe](A)[sp].[moe](A)}$$$$ (last 3' nucleoside missing) | 4
